Assay [1] has as its system Rattus norvegicus. Description: In vivo inhibition of ionophore induced rat pleurisy. The class given is functional.
The subject of assay [2] is Rattus norvegicus. Description: Percent inhibition was determined for in vivo ionophore induced rat pleurisy at a dose of 3 mg/kg. It counts as functional.

In the assay with Rattus norvegicus [1], `C/C(=N\OC(CC(C)(C)c1ccccc1)c1ccc(OCc2ccc3ccccc3n2)cc1)C(=O)O` (stereo not drawn) gave an ED50 of 2 mg/kg.
Still for that read-out and setting: the figure for `O=C(O)/C=N/OC(c1ccc(OCc2nc3ccccc3s2)cc1)C1CCCCC1` (stereo not drawn) is 3 mg/kg.
With `Cc1nc(COc2ccc(C(O/N=C/C(=O)O)C3CCCCC3)cc2)cs1` (stereo not drawn), the I with Rattus norvegicus [2] stood at 4%.
Same read-out and setting: then `CCCCC(O/N=C/C(=O)O)c1ccc(OCc2ccc3ccccc3n2)cc1` (stereo not drawn), with 0%.
Turning to `O=C(O)/C=N/OC(c1ccc(OCc2ccc3ccccc3n2)cc1)C1CCCCC1` (stereo not drawn), the ED50 in the assay on Rattus norvegicus [1] worked out at 2.5 mg/kg.
For the compound `C/C(=N\OC(c1ccc(OCc2nc3cc(F)ccc3s2)cc1Cl)C1CCCCC1)C(=O)O` (stereo not drawn), the I in the assay on Rattus norvegicus [2] was determined as 22%.
`O=C(O)/C=N/OC(c1ccc(OCc2nc3ccccc3s2)cc1Br)C1CCCCC1` (stereo not drawn): the ED50 in the assay on Rattus norvegicus [1] is 1 mg/kg.
Compound `O=C(O)/C=N/OC(c1ccc(OCc2csc(-c3ccc(Cl)cc3)n2)cc1)C1CCCCC1` (stereo not drawn) registered an I in the assay with Rattus norvegicus [2] of 30%.
In the assay with Rattus norvegicus [2], `CCCCC(CCCC)C(O/N=C(\C)C(=O)O)c1ccc(OCc2ccc3ccccc3n2)cc1` (stereo not drawn) displayed an I of 40%.
`O=C(O)/C=N/OC(c1ccc(OCc2ccc3ccccc3n2)cc1)C1C2CC3CC(C2)CC1C3` (stereo not drawn) registered a median effective dose (ED50) with Rattus norvegicus [1] of 1.2 mg/kg.
On the same count and under the same terms, then `C/C(=N\OC(c1ccc(OCc2ccc3ccccc3n2)cc1)C1C2CC3CC(C2)CC1C3)C(=O)O` (stereo not drawn), with 0.6 mg/kg.
In the assay on Rattus norvegicus [2], `O=C(O)/C=N/OC(c1ccc(OCc2nc3ccccc3o2)cc1)C1CCCCC1` (stereo not drawn) returned an I of 14%.
Turning to `CC(c1cc2ccccc2s1)N(O)C(N)=O` (stereo not drawn) [ZILEUTON], the ED50 in the assay with Rattus norvegicus [1] came out at 6 mg/kg.
For the compound `CCCCC(CCCC)C(O/N=C/C(=O)O)c1ccc(OCc2ccc3ccccc3n2)cc1` (stereo not drawn), in the assay with Rattus norvegicus [2], the I worked out at 7%.
Compound `O=C(O)/C(=N\OC(c1ccc(OCc2ccc3ccccc3n2)cc1)C1CCCCC1)c1cccs1` (stereo not drawn) gave an I with Rattus norvegicus [2] of 60%.
Still for that read-out and setting: the figure for `O=C(O)/C=N/OC(c1cc2cc(OCc3ccc4ccccc4n3)ccc2o1)C1CCCCC1` (stereo not drawn) is 31%.
Same read-out and setting: then `O=C(O)C1CCC(=NOC(c2ccc(OCc3ccc4ccccc4n3)cc2)C2CCCCC2)CC1` (stereo not drawn), with 9%.
For `C/C(CCC(=O)O)=N\OC(c1ccc(OCc2ccc3ccccc3n2)cc1)C1CCCCC1` (stereo not drawn), the ED50 with Rattus norvegicus [1] came out at 1 mg/kg.
Turning to `C/C(CCCCCC(=O)O)=N\OC(c1ccc(OCc2ccc3ccccc3n2)cc1)C1CCCCC1` (stereo not drawn), the I in the assay with Rattus norvegicus [2] was 5%.
Still for that read-out and setting: then `O=C(O)/C=N/OC(c1ccc(OCc2cnc3ccccc3n2)cc1)C1CCCCC1` (stereo not drawn), with 28%.
Regarding `CC(/C=C/C(=O)O)=N\OC(c1ccc(OCc2ccc3ccccc3n2)cc1)C1CCCCC1` (stereo not drawn), it took a dose of 2 mg/kg to reach the 50% effect level with Rattus norvegicus [1] (ED50).
`C/C(=N\OC(c1ccc(OCc2nc3ccccc3s2)cc1Cl)C1CCCCC1)C(=O)O` (stereo not drawn) displayed an ED50 in the assay with Rattus norvegicus [1] of 2.6 mg/kg.
`C/C(=N\OC(Cc1ccc(OCc2ccc3ccccc3n2)cc1)C1CCCCC1)C(=O)O` (stereo not drawn) showed an I in the assay on Rattus norvegicus [2] of 30%.
The same measure, in the same setting: the figure for `C/C(=N\OCC(c1ccc(OCc2ccc3ccccc3n2)cc1)C1CCCCC1)C(=O)O` (stereo not drawn) is 33%.
Still for that read-out and setting: the figure for `O=C(O)/C(=N/OC(c1ccc(OCc2ccc3ccccc3n2)cc1)C1CCCCC1)c1ccccc1` (stereo not drawn) is 41%; for `C/C(=N\OC(Cc1ccccc1)c1ccc(OCc2ccc3ccccc3n2)cc1)C(=O)O` (stereo not drawn) it is 36%.
Still for that read-out and setting: then `C/C(=N\OC(c1ccc(OCc2ccc3ccccc3n2)cc1)C1CCCC1)C(=O)O` (stereo not drawn), with 61%; and `O=C(O)/C=N/OC(c1ccc(OCc2nc3cccnc3s2)cc1)C1CCCCC1` (stereo not drawn), with 47%; and `C/C(CCC(=O)O)=N/OC(c1ccc(OCc2ccc3ccccc3n2)cc1)C1CCCCC1` (stereo not drawn), with 62%.
As for `O=C(O)/C=N/OC(c1ccc(OCc2nc3cc(F)ccc3s2)cc1Cl)C1CCCCC1` (stereo not drawn), the ED50 with Rattus norvegicus [1] worked out at 1.7 mg/kg.
As to `O=C(O)/C=N/OC(c1ccc2cc(OCc3ccc4ccccc4n3)ccc2c1)C1CCCCC1` (stereo not drawn), in the assay on Rattus norvegicus [2], the I was 24%.
Same read-out and setting: then `C/C(=N\OC(c1ccc(OCc2ccc3ccccc3n2)cc1)c1cccs1)C(=O)O` (stereo not drawn), with 6%.
Regarding `O=C(O)[C@@H](c1ccc(OCc2ccc3ccccc3n2)cc1)C1CCCC1` [VELIFLAPON], in the assay with Rattus norvegicus [1], it took a dose of 4 mg/kg to reach the 50% effect level (ED50).
The same measure, in the same setting: the figure for `CC(C)(C)Sc1c(CC(C)(C)C(=O)[O-])n(Cc2ccc(Cl)cc2)c2ccc(OCc3ccc4ccccc4n3)cc12.[Na+]` [QUIFLAPON SODIUM] is 1.6 mg/kg.
On the same count and under the same terms, then `C/C(CCCC(=O)O)=N\OC(c1ccc(OCc2ccc3ccccc3n2)cc1)C1CCCCC1` (stereo not drawn), with 3 mg/kg.
As for `O=C(O)/C=N/OC(c1ccc(OCc2ccccn2)cc1)C1CCCCC1` (stereo not drawn), the I in the assay with Rattus norvegicus [2] came out at 3%.
In the assay on Rattus norvegicus [2], `O=C(O)/C=N/OC(c1ccc(OCc2nc(-c3ccccc3)cs2)cc1)C1CCCCC1` (stereo not drawn) displayed an I of 0%.
The same measure, in the same setting: the figure for `O=C(O)/C=N/OC(c1ccc(OCc2nc3cc(F)ccc3s2)cc1)C1CCCCC1` (stereo not drawn) is 0%.
In the assay with Rattus norvegicus [1], `C/C(=N\OC(c1ccc(OCc2ccc3ccccc3n2)c(Cl)c1)C1CCCCC1)C(=O)O` (stereo not drawn) came in with an ED50 of 1.2 mg/kg.
In the assay on Rattus norvegicus [2], `C/C(=N\OC(c1ccc(OCc2ccc3ccccc3n2)c(C)c1)C1CCCCC1)C(=O)O` (stereo not drawn) came in with an I of 58%.
In turn, `C/C(=N\OC(c1cc2ccc(OCc3ccc4ccccc4n3)cc2s1)C1CCCCC1)C(=O)O` (stereo not drawn) had an I in the assay on Rattus norvegicus [2] of 80%.
As for `C/C(=N\OC(c1ccc(OCc2ccc3cc(F)ccc3n2)cc1)C1CCCCC1)C(=O)O` (stereo not drawn), the ED50 in the assay with Rattus norvegicus [1] amounted to 0.4 mg/kg.
In the assay with Rattus norvegicus [2], `C/C(=N\OC(c1ccc(COc2ccc3ccccc3n2)cc1)C1CCCCC1)C(=O)O` (stereo not drawn) gave an I of 0%.
In the case of `Cc1cc(C(O/N=C/C(=O)O)C2CCCCC2)ccc1OCc1ccc2ccccc2n1` (stereo not drawn), the I with Rattus norvegicus [2] was 15%.
`O=C(O)/C(Cc1ccc(O)cc1)=N/OC(c1ccc(OCc2ccc3ccccc3n2)cc1)C1CCCCC1` (stereo not drawn): the I in the assay on Rattus norvegicus [2] was determined as 39%.
As to `O=C(O)CSC(CCCc1ccc(Cl)cc1)c1ccc(OCc2ccc3ccccc3n2)cc1` (stereo not drawn), the ED50 in the assay with Rattus norvegicus [1] was 1.6 mg/kg.
The same measure, in the same setting: the figure for `C/C(=N\OC(CCCc1ccc(F)cc1)c1ccc(OCc2ccc3ccccc3n2)cc1)C(=O)O` (stereo not drawn) is 2.6 mg/kg.
Take `O=C(O)/C=N/OC(c1ccc(OCc2nc3ccccc3s2)cc1Cl)C1CCCCC1` (stereo not drawn): the I in the assay on Rattus norvegicus [2] is 84%.
Same read-out and setting: then `COc1cc(OCc2ccc3ccccc3n2)ccc1C(O/N=C/C(=O)O)C1CCCCC1` (stereo not drawn), with 41%; and `O=C(O)/C=N/OC(c1ccc(OCc2ccc3ccccc3n2)cc1)C1CCCC1` (stereo not drawn), with 27%; and `O=C(O)c1ccc(/C=N/OC(c2ccc(OCc3ccc4ccccc4n3)cc2)C2CCCCC2)cc1` (stereo not drawn), with 41%.
In the assay with Rattus norvegicus [2], `O=C(O)/C(=N/OC(c1ccc(OCc2ccc3ccccc3n2)cc1)C1CCCCC1)c1cccs1` (stereo not drawn) came in with an I of 29%.
Still for that read-out and setting: then `O=C(O)/C=N/OC(c1ccc(OCc2ccc3cc(F)ccc3n2)cc1)C1CCCCC1` (stereo not drawn), with 39%; and `O=C(O)/C(CCc1ccccc1)=N/OC(c1ccc(OCc2ccc3ccccc3n2)cc1)C1CCCCC1` (stereo not drawn), with 34%.
Same read-out and setting: the figure for `C/C(=N\OC(c1ccc(OCc2nc(-c3ccccc3)cs2)cc1)C1CCCCC1)C(=O)O` (stereo not drawn) is 15%; for `C/C(=N\OC(c1ccc(OCc2nc3ccccc3s2)cc1)C1CCCCC1)C(=O)O` (stereo not drawn) it is 85%.
`C/C(=N\OC(c1ccc(OCc2ccc3ccccc3n2)cc1)C1CCCCCC1)C(=O)O` (stereo not drawn) came in with an ED50 in the assay with Rattus norvegicus [1] of 0.7 mg/kg.
Compound `CC(C)c1ccc(-c2csc(COc3ccc(C(O/N=C/C(=O)O)C4CCCCC4)cc3)n2)cc1` (stereo not drawn) had an I with Rattus norvegicus [2] of 15%.

In general, ED50 refers to the midpoint of the dose-response relation. Low readings indicate greater potency, high ones weaker potency.

These data come from ChEMBL document CHEMBL1133707, “Heteroarylmethoxyphenylalkoxyiminoalkylcarboxylic acids as leukotriene biosynthesis inhibitors” (J Med Chem, 2000).
